Source: patent publication US20250154686A1, “COMPOUND LIBRARY” (CHUGAI SEIYAKU KABUSHIKI KAISHA, priority 2021, published 2025)

Target: T1, Bcl-2 protein (Recombinant Human Bcl-2 Protein) (Homo sapiens, UniProt P10415)
T1 construct: purchased Novus Biologicals NBP2-34889
Experiment: AS-MS evaluation of binding of the Example 4 mixture library (1200 compounds/well) to Bcl-2, ASMS ratio (%)
Summary of the method: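 A pooled 1200-compound mixture (20 nM each final) was incubated with 20 μM recombinant human Bcl-2 in pH 7.4 Tris-HCl buffer with NaCl, Tween-20 and DTT for 1 h at 23° C. in the dark. Bound ligands were separated by spin-column SEC and measured by reverse-phase LC/MS; ASMS ratio (%) was calculated against protein-free unfiltered standard and protein-free SEC blank.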

[1] = replicate n = 2, mixture library, value belongs to the MS peak assigned to the compound
[2] = replicate n = 1, mixture library, value belongs to the MS peak assigned to the compound
[3] = AS-MS, Example 4 mixture library, Bcl-2, replicate n = 1
[4] = AS-MS, Example 4 mixture library, Bcl-2, replicate n = 2

T1 sequence (P10415 whole entry): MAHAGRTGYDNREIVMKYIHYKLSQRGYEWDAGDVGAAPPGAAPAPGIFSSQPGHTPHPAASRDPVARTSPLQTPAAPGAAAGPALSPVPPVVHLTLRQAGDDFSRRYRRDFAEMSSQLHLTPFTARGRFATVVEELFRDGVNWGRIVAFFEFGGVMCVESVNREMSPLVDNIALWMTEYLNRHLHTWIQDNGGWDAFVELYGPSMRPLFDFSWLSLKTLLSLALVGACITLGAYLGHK

Row | ASMS ratio (%) n = 2 [1] [%] | ASMS ratio (%) n = 1 [2] [%] | ASMS ratio (%) n = 1 [3] [%] | ASMS ratio (%) n = 2 [4] [%] | SMILES
1 | 0.0 | – | – | – | CCOc1cccc(-c2ccc(CN3CCN(c4ccc(C(=O)NS(=O)(=O)C(C)(C)C)cc4)CC3)c(CC)c2)c1 [Compound B2L049-01, N-tert-Butylsulfonyl-4-[4-[[4-(3-ethoxyphenyl)-2-ethylphenyl]methyl]piperazin-1-yl]benzamide]
2 | 0.0 | 0.0 | – | – | CCOc1cncc(-c2ccc(CN3CCN(c4ccc(C(=O)NS(=O)(=O)C(C)(C)C)cc4)CC3)c(CC)c2)c1 [Compound B2L050-01, N-tert-Butylsulfonyl-4-[4-[[4-(5-ethoxypyridin-3-yl)-2-ethylphenyl]methyl]piperazin-1-yl]benzamide]
3 | 0.0 | 0.0 | – | – | CCOc1cccc(-c2ccc(CN3CCN(c4ccc(C(=O)NS(=O)(=O)C(C)(C)C)cc4)CC3)cc2F)c1 [Compound B2L051-01, N-tert-Butylsulfonyl-4-[4-[[4-(3-ethoxyphenyl)-3-fluorophenyl]methyl]piperazin-1-yl]benzamide]
4 | 1.0 | 2.7 | – | – | CCOc1cncc(-c2ccc(CN3CCN(c4ccc(C(=O)NS(=O)(=O)C(C)(C)C)cc4)CC3)cc2F)c1 [Compound B2L052-01, N-tert-Butylsulfonyl-4-[4-[[4-(5-ethoxypyridin-3-yl)-3-fluorophenyl]methyl]piperazin-1-yl]benzamide]
5 | 0.0 | 0.0 | – | – | CCOc1cccc(-c2ccc(CN3CCN(c4ccc(C(=O)NS(=O)(=O)C(C)(C)C)cc4)CC3)c(OC)c2)c1 [Compound B2L053-01]
6 | 0.0 | 0.0 | – | – | CCOc1cncc(-c2ccc(CN3CCN(c4ccc(C(=O)NS(=O)(=O)C(C)(C)C)cc4)CC3)c(OC)c2)c1 [Compound B2L054-01]
7 | 0.0 | 0.0 | – | – | CCOc1cccc(-c2cc(CN3CCN(c4ccc(C(=O)NS(=O)(=O)C(C)(C)C)cc4)CC3)cc(OCC)c2)c1 [Compound B2L055-01, N-tert-Butylsulfonyl-4-[4-[[3-ethoxy-5-(3-ethoxyphenyl)phenyl]methyl]piperazin-1-yl]benzamide]
8 | 0.0 | 0.0 | – | – | CCOc1cncc(-c2cc(CN3CCN(c4ccc(C(=O)NS(=O)(=O)C(C)(C)C)cc4)CC3)cc(OCC)c2)c1 [Compound B2L056-01]
9 | 0.0 | 0.0 | – | – | CCOc1cccc(-c2cc(CN3CCN(c4ccc(C(=O)NS(=O)(=O)C(C)(C)C)cc4)CC3)cc(OC(C)C)c2)c1 [Compound B2L057-01, N-tert-Butylsulfonyl-4-[4-[3-(3-ethoxyphenyl)-5-propan-2-yloxyphenylmethyl]piperazin-1-yl]benzamide]
10 | 0.0 | 0.0 | – | – | CCOc1cncc(-c2cc(CN3CCN(c4ccc(C(=O)NS(=O)(=O)C(C)(C)C)cc4)CC3)cc(OC(C)C)c2)c1 [Compound B2L058-01]
11 | 0.0 | 0.0 | – | – | CCOc1cccc(-c2cc(OC)c(CN3CCN(c4ccc(C(=O)NS(=O)(=O)C(C)(C)C)cc4)CC3)c(OC)c2)c1 [Compound B2L059-01, N-tert-Butylsulfonyl-4-[4-[[4-(3-ethoxyphenyl)-2,6-dimethoxyphenyl]methyl]piperazin-1-yl]benzamide]
12 | 0.0 | – | – | – | CCOc1cncc(-c2cc(OC)c(CN3CCN(c4ccc(C(=O)NS(=O)(=O)C(C)(C)C)cc4)CC3)c(OC)c2)c1 [Compound B2L060-01]
13 | −11.1 | 4.6 | – | – | CCOc1cccc(-c2cc(CN3CCN(c4ccc(C(=O)NS(=O)(=O)C(C)(C)C)cc4)CC3)cc(C(F)(F)F)c2)c1 [Compound B2L061-01, N-tert-Butylsulfonyl-4-[4-[[3-(3-ethoxyphenyl)-5-(trifluoromethyl)phenyl]methyl]piperazin-1-yl]benzamide]
14 | 0.0 | 0.0 | – | – | CCOc1cncc(-c2cc(CN3CCN(c4ccc(C(=O)NS(=O)(=O)C(C)(C)C)cc4)CC3)cc(C(F)(F)F)c2)c1 [Compound B2L062-01, N-tert-Butylsulfonyl-4-[4-[[3-(5-ethoxypyridin-3-yl)-5-(trifluoromethyl)phenyl]methyl]piperazin-1-yl]benzamide]
15 | 0.0 | 0.0 | – | – | CCOc1cccc(-c2cc(CN3CCN(c4ccc(C(=O)NS(=O)(=O)C(C)(C)C)cc4)CC3)cc(OC(F)(F)F)c2)c1 [Compound B2L063-01, N-tert-Butylsulfonyl-4-[4-[[3-(3-ethoxyphenyl)-5-(trifluoromethoxy)phenyl]methyl]piperazin-1-yl]benzamide]
16 | 0.0 | 0.0 | – | – | CCOc1cncc(-c2cc(CN3CCN(c4ccc(C(=O)NS(=O)(=O)C(C)(C)C)cc4)CC3)cc(OC(F)(F)F)c2)c1 [Compound B2L064-01]
17 | 0.0 | 0.0 | – | – | CCOc1cncc(-c2ccc(CN3CCN(c4ccc(C(=O)NS(=O)(=O)C(C)(C)C)cc4)CC3)c3ccccc23)c1 [Compound B2L066-01, N-tert-Butylsulfonyl-4-[4-[[4-(5-ethoxypyridin-3-yl)naphthalen-1-yl]methyl]piperazin-1-yl]benzamide]

Row | ASMS ratio (%) n = 2 [1] [%] | ASMS ratio (%) n = 1 [2] [%] | ASMS ratio (%) n = 1 [3] [%] | ASMS ratio (%) n = 2 [4] [%] | SMILES
18 | 0.0 | 0.0 | – | – | CCOc1cccc(-c2csc(CN3CCN(c4ccc(C(=O)NS(=O)(=O)C(C)(C)C)cc4)CC3)c2)c1 [Compound B2L067-01]
19 | 0.0 | 0.0 | – | – | CCOc1cncc(-c2csc(CN3CCN(c4ccc(C(=O)NS(=O)(=O)C(C)(C)C)cc4)CC3)c2)c1 [Compound B2L068-01]
20 | 0.0 | 0.0 | – | – | CCOc1cccc(C#Cc2ccccc2CN2CCN(c3ccc(C(=O)NS(=O)(=O)C(C)(C)C)cc3)CC2)c1 [Compound B2L069-01, N-tert-Butylsulfonyl-4-[4-[[2-[2-(3-ethoxyphenyl)ethynyl]phenyl]methyl]piperazin-1-yl]benzamide]
21 | −4.2 | 4.9 | – | – | CCOc1cncc(C#Cc2ccccc2CN2CCN(c3ccc(C(=O)NS(=O)(=O)C(C)(C)C)cc3)CC2)c1 [Compound B2L070-01]
22 | 0.0 | 1.2 | – | – | CCOc1cccc(-c2ccccc2CN2CCN(c3ccc(C(=O)NS(=O)(=O)C(C)(C)C)nn3)CC2)c1 [Compound B2L071-01, N-tert-Butylsulfonyl-6-[4-[2-(3-ethoxyphenyl)phenyl]methyl]piperazin-1-yllpyridazine-3-carboxamide]
23 | 8.3 | −10.7 | – | – | CCOc1cncc(-c2ccccc2CN2CCN(c3ccc(C(=O)NS(=O)(=O)C(C)(C)C)nn3)CC2)c1 [Compound B2L072-01, N-tert-Butylsulfonyl-6-[4-[[2-(5-ethoxypyridin-3-yl)phenyl]methyl]piperazin-1-yl]pyridazine-3-carboxamide]
24 | 0.0 | 0.0 | – | – | CCOc1cccc(-c2ccc(CN3CCN(c4ccc(C(=O)NS(=O)(=O)C(C)(C)C)nn4)CC3)cc2C)c1 [Compound B2L073-01]
25 | 1.4 | −1.0 | – | – | CCOc1cncc(-c2ccc(CN3CCN(c4ccc(C(=O)NS(=O)(=O)C(C)(C)C)nn4)CC3)cc2C)c1 [Compound B2L074-01]
26 | 33.9 | 0.0 | – | – | CCOc1cccc(-c2ccc(CN3CCN(c4ccc(C(=O)NS(=O)(=O)C(C)(C)C)nn4)CC3)c(CC)c2)c1 [Compound B2L075-01]
27 | −0.3 | 1.8 | – | – | CCOc1cncc(-c2ccc(CN3CCN(c4ccc(C(=O)NS(=O)(=O)C(C)(C)C)nn4)CC3)c(CC)c2)c1 [Compound B2L076-01]
28 | 0.0 | 0.0 | – | – | CCOc1cccc(-c2ccc(CN3CCN(c4ccc(C(=O)NS(=O)(=O)C(C)(C)C)nn4)CC3)cc2F)c1 [Compound B2L077-01, N-tert-Butylsulfonyl-6-[4-[4-(3-ethoxyphenyl)-3-fluorophenyl]methyl]piperazin-1-yllpyridazine-3-carboxamide]
29 | −0.7 | 1.1 | – | – | CCOc1cncc(-c2ccc(CN3CCN(c4ccc(C(=O)NS(=O)(=O)C(C)(C)C)nn4)CC3)cc2F)c1 [Compound B2L078-01, N-tert-Butylsulfonyl-6-[4-[[4-(5-ethoxypyridin-3-yl)-3-fluorophenyl]methyl]piperazin-1-yl]pyridazine-3-carboxamide]
30 | 0.0 | 0.0 | – | – | CCOc1cccc(-c2ccc(CN3CCN(c4ccc(C(=O)NS(=O)(=O)C(C)(C)C)nn4)CC3)c(OC)c2)c1 [Compound B2L079-01]
31 | 0.0 | 0.0 | – | – | CCOc1cncc(-c2ccc(CN3CCN(c4ccc(C(=O)NS(=O)(=O)C(C)(C)C)nn4)CC3)c(OC)c2)c1 [Compound B2L080-01]
32 | – | – | 0.0 | 0.0 | CCOc1cccc(-c2cc(CN3CCN(c4ccc(C(=O)NS(=O)(=O)C(C)(C)C)nn4)CC3)cc(OCC)c2)c1 [Compound B2L081-01, N-tert-Butylsulfonyl-6-[4-[3-ethoxy-5-(3-ethoxyphenyl)phenyl]methyl]piperazin-1-yllpyridazine-3-carboxamide]
33 | – | – | 2.6 | −1.2 | CCOc1cncc(-c2cc(CN3CCN(c4ccc(C(=O)NS(=O)(=O)C(C)(C)C)nn4)CC3)cc(OCC)c2)c1 [Compound B2L082-01]
34 | – | – | 0.0 | 0.0 | CCOc1cccc(-c2cc(CN3CCN(c4ccc(C(=O)NS(=O)(=O)C(C)(C)C)nn4)CC3)cc(OC(C)C)c2)c1 [Compound B2L083-01]
